Experimental data from US20190223437A1, “ACTIVE COMPOUND COMBINATIONS COMPRISING A 5-SUBSTITUTED IMIDAZOLE DERIVATIVE” (BAYER CROPSCIENCE AKTIENGESELLSCHAFT, priority 2016, published 2019).
Marks after values point to notes of the source that are not given here.

System: not listed separately
Test: Example G: in vivo ecotoxicity screening test on fish (Danio rerio)
Settings: Danio rerio, in vivo, other: exposure of embryos in water containing the compound
Experimental: with ECxi the Effect Concentration (EC) of each chemical i (in ppm) causing x % effect on the ecotoxicity test endpoint.
For each compound combination, the predicted ECx value is calculated. It is then compared to an experimentally measured value. The ratio of predicted versus measured effect for the combination (thereafter called the Model Deviation Ratio or MDR) is then calculated.
The environmental effect of the compound combinations was measured experimentally in laboratory ecotoxicity screening studies with fish (Danio rerio). […] Mortality was recorded after 48 h and 96 h for each tested concentration and a reference control. […] Then, the MDR values were calculated.
This concentrate is then diluted with water to the desired a.i. concentration, leading to a maximal solvent concentration of 0.5%. by weight The compounds alone and the combinations were tested for five increasing concentrations comprised between 0.01 and 1000 ppm (mg/1) a.i., (e.g. 0.1, 1.0, 10 and 100 ppm a.i). For the combinations, compounds A and B were mixed in a weight ratio of 5:1 to 1:5 and five increasing concentrations were tested for each ratio.

Row | Compound | LC50 at 48 h [µg/mL] | LC50 at 96 h [µg/mL]
1 | CC(C)(C)[C@@H](O)[C@@H](Cc1ccc(Cl)cc1)n1cncn1 (racemic) [Example 1.015, paclobutrazol] | 99.8 | 56.5
2 | CC(C)C1CCC(Cc2ccc(Cl)cc2)C1(O)Cn1cncn1 (stereo not drawn) [Example 1.012, ipconazole] | 13.8 | 6.57
3 | OC(Cc1ccccc1Cl)(Cn1nc[nH]c1=S)C1(Cl)CC1 (stereo not drawn) [Example 1.018, prothioconazole] | 9.49 | 3.16
4 | CC(C)(C)C(O)(CCc1ccc(Cl)cc1)Cn1cncn1 (stereo not drawn) [Example 1.021, tebuconazole] | 19.7 | 19.7
5 | CC(C)c1ccc(Cl)cc1CN(C(=O)c1c(C(F)F)nn(C)c1F)C1CC1 [Example 2.038, N-(5-chloro-2-isopropylbenzyl)-N-cyclopropyl-3-(difluoromethyl)-5-fluoro-1-methyl-1H-pyrazole-4-carboxamide] | 0.51 | 0.35
6 | CON=C(C(=O)OC)c1ccccc1CON=C(C)c1cccc(C(F)(F)F)c1 [Example 3.020, trifloxystrobin] | 0.4 | 0.24
7 | O=C(Nc1ccccc1)N(Cc1ccc(Cl)cc1)C1CCCC1 [Example 4.005, pencycuron] | > 200 | > 200
8 | N#Cc1c[nH]cc1-c1cccc2c1OC(F)(F)O2 [Example 13.001, fludioxonil] | 0.91 | 0.89
9 | O=C(Cc1ccccc1)N/C(=N\OCC1CC1)c1c(C(F)(F)F)ccc(F)c1F [Example 15.008, cyflufenamid] | 9.71 | 5.2

System: causal agent of soybean rust (Phakopsora pachyrhizi)
Test: Example C: in vivo preventive test on Phakopsora test (soybeans)
Settings: 1 ppm a.i., compound alone

Row | Compound | Efficacy in % found [%]
10 | CC(C)c1ccc(Cl)cc1CN(C(=O)c1c(C(F)F)nn(C)c1F)C1CC1 [Example 2.038, N-(5-chloro-2-isopropylbenzyl)-N-cyclopropyl-3-(difluoromethyl)-5-fluoro-1-methyl-1H-pyrazole-4-carboxamide] | 0

Same assay, conditions: 2 ppm a.i., compound alone

Row | Compound | Efficacy in % found [%]
11 | CC(C)c1ccc(Cl)cc1CN(C(=O)c1c(C(F)F)nn(C)c1F)C1CC1 [Example 2.038, N-(5-chloro-2-isopropylbenzyl)-N-cyclopropyl-3-(difluoromethyl)-5-fluoro-1-methyl-1H-pyrazole-4-carboxamide] | 0

Same assay, conditions: 4 ppm a.i., compound alone

Row | Compound | Efficacy in % found [%]
12 | CC(C)c1ccc(Cl)cc1CN(C(=O)c1c(C(F)F)nn(C)c1F)C1CC1 [Example 2.038, N-(5-chloro-2-isopropylbenzyl)-N-cyclopropyl-3-(difluoromethyl)-5-fluoro-1-methyl-1H-pyrazole-4-carboxamide] | 0

Same assay, conditions: 5 ppm a.i., compound alone

Row | Compound | Efficacy in % found [%]
13 | O=C(NCCc1ncc(C(F)(F)F)cc1Cl)c1ccccc1C(F)(F)F [2.005 fluopyram] | 0

Same assay, conditions: 10 ppm a.i., compound alone

Row | Compound | Efficacy in % found [%]
14 | O=C(NCCc1ncc(C(F)(F)F)cc1Cl)c1ccccc1C(F)(F)F [2.005 fluopyram] | 0

Same assay, conditions: 20 ppm a.i., compound alone

Row | Compound | Efficacy in % found [%]
15 | O=C(NCCc1ncc(C(F)(F)F)cc1Cl)c1ccccc1C(F)(F)F [2.005 fluopyram] | 0

System: not listed separately
Test: Measurement of Log P values by HPLC on reversed phase columns (EEC directive 79/831 Annex V.A8)
Type: physicochemical
Settings: not given

Row | Compound | LogP
16 | N#Cc1cncn1CC(O)(C(F)c1ccccc1Cl)C1(Cl)CC1 (stereo not drawn) [Example I-24] | 2.82^[a]
17 | OC(Cc1cccnc1Cl)(Cn1cncc1Br)C1(Cl)CC1 (stereo not drawn) [Example I-25] | 1.56^[a]
18 | N#Cc1cncn1CC(O)(Cc1cccnc1Cl)C1(Cl)CC1 (stereo not drawn) [Example I-26] | 2.01^[a]
19 | OC(Cn1cncc1Cl)(C(F)c1ccccc1F)C1(Cl)CC1 (stereo not drawn) [Example I-28] | 2.01^[a]
20 | OC(Cc1ccc(Cl)cc1F)(Cn1cncc1Br)C1(Cl)CC1 (stereo not drawn) [Example I-30] | 2.55^[a]
21 | OC(Cc1ccccc1F)(Cn1cncc1Cl)C1(Cl)CC1 (stereo not drawn) [Example I-32] | 2.07^[a]
22 | N#Cc1cncn1CC(O)(Cc1ccc(F)c(F)c1F)C1CCC1 (stereo not drawn) [Example I-104] | 2.78^[a]
23 | CC(C)C(O)(Cc1ccc(F)c(F)c1F)Cn1cncc1C#N (stereo not drawn) [Example I-105] | 2.78^[a]
24 | Cc1ccc(CC(O)(Cn2cncc2Cl)C2(Cl)CC2)c(F)c1 (stereo not drawn) [Example I-108] | 2.34^[a]
25 | N#Cc1cncn1CC(O)(Cc1ccc(F)c(F)c1)C1(Cl)CC1 (stereo not drawn) [Example I-109] | 2.78^[a]
26 | OC(Cc1ccc(F)c(F)c1)(Cn1cncc1Cl)C1(Cl)CC1 (stereo not drawn) [Example I-110] | 2.23^[a]
27 | NC(=O)c1cncn1CC(O)(Cc1ccc(Cl)cc1F)C1CC1 (stereo not drawn) [Example I-116] | 1.49^[a]
28 | N#Cc1cncn1CC(O)(Cc1ccc(Cl)cc1F)C1CCC1 (stereo not drawn) [Example I-117] | 3.13^[a]
29 | CC(C)C(O)(Cc1ccc(Cl)cc1F)Cn1cncc1C#N (stereo not drawn) [Example I-118] | 2.91^[a]
30 | COC(Cc1ccc(Cl)cc1F)(Cn1cncc1C#N)C1CC1 (stereo not drawn) [Example I-121] | 3.31^[a]
31 | CCOC(Cc1ccc(Cl)cc1F)(Cn1cncc1Cl)C1(Cl)CC1 (stereo not drawn) [Example I-122] | 3.10^[a]
32 | C=CCOC(Cc1ccc(Cl)cc1F)(Cn1cncc1Cl)C1(Cl)CC1 (stereo not drawn) [Example I-123] | 3.31^[a]
33 | CC(C)C(O)(Cc1ccc(F)cc1F)Cn1cncc1C#N (stereo not drawn) [Example I-128] | 2.52^[a]
34 | O=C(Cc1ccccc1F)c1cncn1CC(O)(Cc1ccccc1F)C1(Cl)CC1 (stereo not drawn) [Example I-134] | 3.60^[a]
35 | CCOC(=O)c1cncn1CC(O)(Cc1ccccc1F)C1(Cl)CC1 (stereo not drawn) [Example I-135] | 2.73^[a]
36 | N#Cc1cncn1CC(O)(Cc1ccccc1F)C1CCC1 (stereo not drawn) [Example I-137] | 2.46^[a]
37 | CC(C)(C)C(O)(Cc1ccccc1F)Cn1cncc1C#N (stereo not drawn) [Example I-138] | 2.73^[a]

Row | Compound | LogP
38 | CC(C)C(O)(Cc1ccccc1F)Cn1cncc1C#N (stereo not drawn) [Example I-139] | 2.40^[a]
39 | Cc1cccc(CC(O)(Cn2cncc2Cl)C2(Cl)CC2)c1F (stereo not drawn) [Example I-143] | 2.35^[a]
40 | OC(Cc1cccc(F)c1F)(Cn1cncc1Cl)C1(Cl)CC1 (stereo not drawn) [Example I-147] | 2.17^[a]
41 | N#Cc1cncn1CC(O)(Cc1cccc(F)c1F)C1CCC1 (stereo not drawn) [Example I-148] | 2.57^[a]
42 | CC(C)C(O)(Cc1cccc(F)c1F)Cn1cncc1C#N (stereo not drawn) [Example I-149] | 2.47^[a]
43 | N#Cc1cncn1CC(O)(Cc1ccnc(Cl)c1F)C1(Cl)CC1 (stereo not drawn) [Example I-152] | 2.25^[a]
44 | N#Cc1cncn1CC(O)(Cc1ccc(F)cc1Cl)C1(Cl)CC1 (stereo not drawn) [Example I-154] | 3.00^[a]
45 | Cc1cc(F)ccc1CC(O)(Cn1cncc1Cl)C1(Cl)CC1 (stereo not drawn) [Example I-155] | 2.46^[a]
46 | N#Cc1cncn1CC(O)(Cc1cc(F)cc(F)c1)C1(Cl)CC1 (stereo not drawn) [Example I-156] | 2.86^[a]
47 | N#Cc1cncn1CC(O)(Cc1ccc(F)cc1)C1(Cl)CC1 (stereo not drawn) [Example I-157] | 2.75^[a]
48 | OC(Cc1ccc(F)cc1)(Cn1cncc1Cl)C1(Cl)CC1 (stereo not drawn) [Example I-158] | 2.13^[a]
49 | N#Cc1cncn1CC(O)(Cc1ccc(F)cc1)C1(Cl)CCC1 (stereo not drawn) [Example I-159] | 2.98^[a]
50 | N#Cc1cncn1CC(O)(Cc1ccc(F)cc1)C1CCC1 (stereo not drawn) [Example I-160] | 2.56^[a]
51 | N#Cc1cncn1CC(O)(Cc1ccc(F)cc1)C1CCCC1 (stereo not drawn) [Example I-161] | 2.82^[a]
52 | CC(C)C(O)(Cc1ccc(F)cc1)Cn1cncc1C#N (stereo not drawn) [Example I-162] | 2.44^[a]
53 | N#Cc1cncn1CC(O)(Cc1ccncc1F)C1(Cl)CC1 (stereo not drawn) [Example I-163] | 1.62^[a]
54 | OC(Cc1ccncc1F)(Cn1cncc1Cl)C1(Cl)CC1 (stereo not drawn) [Example I-164] | 1.46^[a]
55 | N#Cc1cncn1CC(O)(Cc1cc(F)ncc1Cl)C1(Cl)CC1 (stereo not drawn) [Example I-165] | 2.38^[a]
56 | N#Cc1cncn1CC(O)(Cc1ccccc1I)C1(Cl)CC1 (stereo not drawn) [Example I-166] | 3.13^[a]
57 | N#Cc1cncn1CC(O)(Cc1ccnnc1Cl)C1(Cl)CC1 (stereo not drawn) [Example I-168] | 1.59^[a]
58 | O=C(Cc1ccccc1)c1cncn1CC(O)(Cc1ccccc1)C1(Cl)CC1 (stereo not drawn) [Example I-169] | 3.56^[a]

Same assay, conditions: reversed phase HPLC column; method [a]: LC-UV, acidic range, 0.1% formic acid in water and acetonitrile as eluent; Table 1, compounds of formula (I)

Row | Compound | chromatographic logP
59 | N#Cc1cncn1C[C@](O)(Cc1ccccc1F)C1(Cl)CC1 [Example I-132, 1-[(2R)-2-(1-chlorocyclopropyl)-3-(2-fluorophenyl)-2-hydroxypropyl]-1H-imidazole-5-carbonitrile] | 2.59
60 | N#Cc1cncn1C[C@@](O)(Cc1ccccc1F)C1(Cl)CC1 [Example I-133, 1-[(2S)-2-(1-chlorocyclopropyl)-3-(2-fluorophenyl)-2-hydroxypropyl]-1H-imidazole-5-carbonitrile] | 2.59
